# Results taken from PubChem BioAssay AID256 (DTP/NCI, 2004).
# Where “and” joins values, the source holds several entries; their conditions need not be identical. Equal values may be shown once. Toxic doses and inconclusive results are not listed.
# Tested on: CD2F1 mice, L1210 leukemia ip, survival T/C
# Experiment: NCI In Vivo Anticancer Drug Screen. Data for tumor model L1210 Leukemia (intraperitoneal) in CD2F1 (CDF1) mice
# Conditions: higher = longer survival
# Summary of the method: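 Mice carrying a transplanted tumor received test compound or vehicle alone. The value is the measurement in the treated group divided by that in the vehicle-treated control group.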
# [1] = endpoint: mean survival time, dose: 25.0 mg/kg/injection, schedule: Q01DX009 (ip), vehicle: Klucel (hydroxypropylcellulose) (HPC)
# [2] = endpoint: mean survival time, dose: 50.0 mg/kg/injection, schedule: Q01DX009 (ip), vehicle: Klucel (hydroxypropylcellulose) (HPC)
# [3] = endpoint: mean survival time, dose: 100.0 mg/kg/injection, schedule: Q01DX009 (ip), vehicle: Klucel (hydroxypropylcellulose) (HPC)
# [4] = endpoint: mean survival time, dose: 200.0 mg/kg/injection, schedule: Q01DX009 (ip), vehicle: Klucel (hydroxypropylcellulose) (HPC)
# [5] = endpoint: mean survival time, dose: 400.0 mg/kg/injection, schedule: Q01DX009 (ip), vehicle: saline with Tween-80
# [6] = endpoint: mean survival time, dose: 100.0 mg/kg/injection, schedule: Q04DX003 (ip), vehicle: saline with Tween-80
# [7] = endpoint: mean survival time, dose: 200.0 mg/kg/injection, schedule: Q04DX003 (ip), vehicle: saline with Tween-80
# [8] = endpoint: mean survival time, dose: 400.0 mg/kg/injection, schedule: Q04DX003 (ip), vehicle: saline with Tween-80
# [9] = endpoint: mean survival time, dose: 100.0 mg/kg/injection, schedule: Q01DX009 (ip), vehicle: saline with Tween-80
# [10] = endpoint: mean survival time, dose: 200.0 mg/kg/injection, schedule: Q01DX009 (ip), vehicle: saline with Tween-80
# [11] = endpoint: mean survival time, dose: 50.0 mg/kg/injection, schedule: Q01DX009 (ip), vehicle: saline with Tween-80
# [12] = endpoint: mean survival time, dose: 100.0 mg/kg/injection, schedule: Q01DX001 (ip), vehicle: saline with Tween-80
# [13] = endpoint: mean survival time, dose: 200.0 mg/kg/injection, schedule: Q01DX001 (ip), vehicle: saline with Tween-80
# [14] = endpoint: mean survival time, dose: 400.0 mg/kg/injection, schedule: Q01DX001 (ip), vehicle: saline with Tween-80
smiles,measurement,setting,value
O=NN(CCCl)C(=O)Nc1ccc2[nH]c3ccccc3c2c1,T/C,[1],101 % of control
same,T/C,[2],116 % of control
same,T/C,[3],118 % of control
same,T/C,"endpoint: mean survival time, dose: 177.0 mg/kg/injection, schedule: Q01DX009 (ip), vehicle: saline with Tween-80",91 % of control
same,T/C,[4],123 % of control
same,T/C,[5],104 % of control
O=C(N/N=C\c1ccc([N+](=O)[O-])cc1)c1ccccc1,T/C,[6],94 % of control
same,T/C,[7],94 % of control
same,T/C,[8],92 % of control
COC(=O)C1OC(C)(C)OC1C(=O)OC (centres undefined),T/C,"endpoint: mean survival time, dose: 1.56 mg/kg/injection, schedule: Q01DX001 (ip), vehicle: saline with Tween-80",103 % of control
same,T/C,"endpoint: mean survival time, dose: 3.12 mg/kg/injection, schedule: Q01DX001 (ip), vehicle: saline with Tween-80",100 % of control
same,T/C,"endpoint: mean survival time, dose: 6.25 mg/kg/injection, schedule: Q01DX001 (ip), vehicle: saline with Tween-80",95 % of control
CN(C)C1c2ccccc2-c2ccc(F)cc21 (centres undefined),T/C,"endpoint: mean survival time, dose: 50.0 mg/kg/injection, schedule: Q01DX001 (ip), vehicle: carboxymethylcellulose (CMC)",107 % of control
same,T/C,"endpoint: mean survival time, dose: 100.0 mg/kg/injection, schedule: Q01DX001 (ip), vehicle: carboxymethylcellulose (CMC)",113 % of control
COc1ccc(C(=O)O)c([N+](=O)[O-])c1,T/C,[6],98 % of control
same,T/C,[7],98 % of control
same,T/C,[8],98 % of control
COc1cc(Cl)c(CCBr)cc1OC,T/C,[2],104 % of control
same,T/C,[3],89 % of control
same,T/C,[4],96 % of control
C=C1C(=O)OC2CCN3CC=C(COC(=O)C(C)(O)C4(CO4)C1C)C23 (centres undefined),T/C,"endpoint: mean survival time, dose: 75.0 mg/kg/injection, schedule: Q01DX001 (ip), vehicle: saline",107 % of control
O=C(OCC1OC(n2cnc(=O)[nH]c2=O)C(OC(=O)c2ccccc2)C1OC(=O)c1ccccc1)c1ccccc1 (centres undefined),T/C,"endpoint: mean survival time, dose: 1.25 mg/kg/injection, schedule: Q04DX003 (ip), vehicle: saline",96 % of control
same,T/C,"endpoint: mean survival time, dose: 2.5 mg/kg/injection, schedule: Q04DX003 (ip), vehicle: saline",101 % of control
same,T/C,"endpoint: mean survival time, dose: 5.0 mg/kg/injection, schedule: Q04DX003 (ip), vehicle: saline",98 % of control
same,T/C,"endpoint: mean survival time, dose: 10.0 mg/kg/injection, schedule: Q04DX003 (ip), vehicle: saline",101 % of control
same,T/C,"endpoint: mean survival time, dose: 20.0 mg/kg/injection, schedule: Q04DX003 (ip), vehicle: saline",98 % of control
same,T/C,"endpoint: mean survival time, dose: 40.0 mg/kg/injection, schedule: Q04DX003 (ip), vehicle: saline",98 % of control
O=C([O-])c1ccccc1[I+]c1ccccc1,T/C,"endpoint: mean survival time, dose: 100.0 mg/kg/injection, schedule: Q01DX001 (ip), vehicle: Klucel (hydroxypropylcellulose) (HPC)",107 % of control
same,T/C,"endpoint: mean survival time, dose: 100.0 mg/kg/injection, schedule: Q01DX009 (ip), vehicle: saline sonified",102 % of control
same,T/C,[6],103 % of control
same,T/C,"endpoint: mean survival time, dose: 200.0 mg/kg/injection, schedule: Q01DX001 (ip), vehicle: Klucel (hydroxypropylcellulose) (HPC)",93 % of control
same,T/C,"endpoint: mean survival time, dose: 200.0 mg/kg/injection, schedule: Q01DX009 (ip), vehicle: saline sonified",94 % of control
same,T/C,[7],101 % of control
same,T/C,"endpoint: mean survival time, dose: 400.0 mg/kg/injection, schedule: Q01DX001 (ip), vehicle: Klucel (hydroxypropylcellulose) (HPC)",111 % of control
same,T/C,"endpoint: mean survival time, dose: 400.0 mg/kg/injection, schedule: Q01DX009 (ip), vehicle: saline sonified",102 % of control
same,T/C,[8],101 % of control
NNc1ncnc2c1cnn2C1OC(CO)C(O)C1O (centres undefined),T/C,"endpoint: mean survival time, dose: 12.5 mg/kg/injection, schedule: Q01DX009 (ip), vehicle: other",103 % of control
same,T/C,"endpoint: mean survival time, dose: 25.0 mg/kg/injection, schedule: Q01DX009 (ip), vehicle: other",103 % of control
same,T/C,"endpoint: mean survival time, dose: 50.0 mg/kg/injection, schedule: Q01DX009 (ip), vehicle: other",103 % of control
same,T/C,"endpoint: mean survival time, dose: 100.0 mg/kg/injection, schedule: Q01DX009 (ip), vehicle: other",110 % of control
same,T/C,"endpoint: mean survival time, dose: 200.0 mg/kg/injection, schedule: Q01DX009 (ip), vehicle: other",112 % of control
same,T/C,"endpoint: mean survival time, dose: 400.0 mg/kg/injection, schedule: Q01DX009 (ip), vehicle: other",89 % of control
Cc1ccc(/C=C/C(=O)/C=C/c2ccc(C)o2)o1,T/C,"endpoint: median survival time, dose: 25.0 mg/kg/injection, schedule: Q01DX005 (ip), vehicle: saline with Tween-80",98 % of control
same,T/C,"endpoint: median survival time, dose: 50.0 mg/kg/injection, schedule: Q01DX005 (ip), vehicle: saline with Tween-80",92 % of control
same,T/C,"endpoint: median survival time, dose: 100.0 mg/kg/injection, schedule: Q01DX005 (ip), vehicle: saline with Tween-80",100 % of control
same,T/C,"endpoint: median survival time, dose: 200.0 mg/kg/injection, schedule: Q01DX005 (ip), vehicle: saline with Tween-80",103 % of control
same,T/C,"endpoint: median survival time, dose: 400.0 mg/kg/injection, schedule: Q01DX005 (ip), vehicle: saline with Tween-80",98 % of control
C(=N/N=C/c1ccsc1)/c1ccsc1,T/C,"endpoint: median survival time, dose: 50.0 mg/kg/injection, schedule: Q04DX002 (ip), vehicle: saline with Tween-80",90 % of control
same,T/C,"endpoint: median survival time, dose: 100.0 mg/kg/injection, schedule: Q04DX002 (ip), vehicle: saline with Tween-80",90 % of control
same,T/C,"endpoint: median survival time, dose: 200.0 mg/kg/injection, schedule: Q04DX002 (ip), vehicle: saline with Tween-80",90 % of control
same,T/C,"endpoint: median survival time, dose: 400.0 mg/kg/injection, schedule: Q04DX002 (ip), vehicle: saline with Tween-80",90 % of control
CC(=O)Nc1ccccc1C#N,T/C,[9],98 % of control
same,T/C,[10],98 % of control
same,T/C,[5],113 % of control
CC(C)C(O)c1ccccc1 (centres undefined),T/C,"endpoint: mean survival time, dose: 12.5 mg/kg/injection, schedule: Q01DX009 (ip), vehicle: saline with Tween-80",103 % of control
same,T/C,"endpoint: mean survival time, dose: 25.0 mg/kg/injection, schedule: Q01DX005 (ip), vehicle: saline with Tween-80",92 % of control
same,T/C,"endpoint: mean survival time, dose: 25.0 mg/kg/injection, schedule: Q01DX009 (ip), vehicle: saline with Tween-80",106 % of control
same,T/C,"endpoint: mean survival time, dose: 50.0 mg/kg/injection, schedule: Q01DX005 (ip), vehicle: saline with Tween-80",95 % of control
same,T/C,[11],95 % of control
same,T/C,"endpoint: mean survival time, dose: 50.0 mg/kg/injection, schedule: Q04DX002 (ip), vehicle: saline with Tween-80",108 % of control
same,T/C,"endpoint: mean survival time, dose: 100.0 mg/kg/injection, schedule: Q01DX005 (ip), vehicle: saline with Tween-80",88 % of control
same,T/C,[9],88 % of control
same,T/C,"endpoint: mean survival time, dose: 100.0 mg/kg/injection, schedule: Q04DX002 (ip), vehicle: saline with Tween-80",101 % of control
same,T/C,"endpoint: mean survival time, dose: 200.0 mg/kg/injection, schedule: Q04DX002 (ip), vehicle: saline with Tween-80",89 % of control
O=[N+]([O-])c1ccc(S(=O)(=O)F)c(Cl)c1,T/C,[9],100 % of control
same,T/C,"endpoint: mean survival time, dose: 100.0 mg/kg/injection, schedule: Q04DX003 (ip), vehicle: saline",100 % of control
same,T/C,[10],100 % of control
same,T/C,"endpoint: mean survival time, dose: 200.0 mg/kg/injection, schedule: Q04DX003 (ip), vehicle: saline",101 % of control
same,T/C,[5],100 % of control
same,T/C,"endpoint: mean survival time, dose: 400.0 mg/kg/injection, schedule: Q04DX003 (ip), vehicle: saline",101 % of control
Cc1cnc(/C=N\NC(N)=S)c2cccc(N)c12,T/C,"endpoint: mean survival time, dose: 3.13 mg/kg/injection, schedule: Q01DX009 (ip), vehicle: Klucel (hydroxypropylcellulose) (HPC)",124 % of control
same,T/C,"endpoint: mean survival time, dose: 3.13 mg/kg/injection, schedule: Q01DX009 (ip), vehicle: saline with Tween-80",122 % of control
same,T/C,"endpoint: mean survival time, dose: 5.4 mg/kg/injection, schedule: Q03HX024 (ip), vehicle: Klucel (hydroxypropylcellulose) (HPC)",123 % of control
same,T/C,"endpoint: mean survival time, dose: 8.0 mg/kg/injection, schedule: Q03HX024 (ip), vehicle: Klucel (hydroxypropylcellulose) (HPC)",151 % of control
same,T/C,"endpoint: mean survival time, dose: 12.0 mg/kg/injection, schedule: Q03HX024 (ip), vehicle: Klucel (hydroxypropylcellulose) (HPC)",112 % of control
same,T/C,[1],168 % of control
same,T/C,[2],89 % of control
same,T/C,"endpoint: median survival time, dose: 3.89 mg/kg/injection, schedule: Q01DX005 (ip), vehicle: other",114 % of control
same,T/C,"endpoint: median survival time, dose: 6.48 mg/kg/injection, schedule: Q01DX005 (ip), vehicle: other",122 % of control
c1ccc2c(c1)Cc1c-2nc2ccccc2c1N1CCOCC1,T/C,[12],94 % of control
same,T/C,[9],97 % of control
same,T/C,[13],100 % of control
same,T/C,[10],106 % of control
same,T/C,[14],92 % of control
C/C=C/C=C(\CC)C(=O)OCC,T/C,[12],97 % of control
same,T/C,[13],97 % of control
same,T/C,[14],86 % of control
CC(=O)SC(c1ccccc1)(c1ccccc1)c1ccccc1,T/C,[6],95 % of control and 103 % of control
same,T/C,[7],91 % of control and 97 % of control
same,T/C,[8],90 % of control and 100 % of control
NC(=O)N/N=C/c1cccs1,T/C,[11],89 % of control
same,T/C,[10],97 % of control
same,T/C,[7],87 % of control
same,T/C,[8],91 % of control
